Values quoted from earlier work in patent publication US20040116411A1, “Combination HIV therapy including camptothecin” (priority 2000, published 2004).

Key:
HIV = settings: by disrupting gp41 conformational changes associated with membrane fusion
[1] = tested on: rous sarcoma virus (RSV) promoter
[2] = tested on: Moloney murine leukemia virus (MMLV)
HIV-1 LTR = settings: human CD4+ lymphocytic cell line RPMI 8402
[3] = tested on: viral-associated topoisomerase I; settings: HIV infection of human H9 cells, in vitro
[4] = tested on: equine infectious anemia virus (EIAA); settings: chronically infected cells
[5] = tested on: human CD4+ lymphocytic cell line RPMI 8402; settings: at the concentration used

## enfuvirtide
HIV
  infection in vitro: inhibit infection in vitro

## CC[C@@]1(O)C(=O)OCc2c1cc1n(c2=O)Cc2cc3ccccc3nc2-1 [camptothecin, 20(S)-camptothecin]
[1]
  promoter activity of rous sarcoma virus (RSV): did not inhibit
[2]
  MMLV replication: inhibits
gro
  expression of gro, a cellular gene: did not inhibit
HIV-1 LTR
  expression of downstream reporter gene under the control of HIV-1 LTR: inhibitory effects
[3]
  activity of the viral-associated topoisomerase I: significantly reduced
[4]
  EIAA replication: inhibits
[5]
  cell survival: not significantly affected

## CC[C@@]1(O)C(=O)OCc2c1cc1n(c2=O)Cc2cc3c(CN(C)C)c(O)ccc3nc2-1 [Topotecan]
HIV-1; CPT-K5 cell line, PBMC acutely infected with clinical isolates, OM10.1 cells latently infected, activated by TNF-α
  antiviral effects: antiviral effects of topotecan were observed
HIV-1; in vitro
  acute and chronic HIV-1 infections: inhibit
